{"source": "patent US11345658B2", "about": "“Compounds and compositions comprising the same for treating hypertension or heart failure” (QUANTUM GENOMICS, priority 2019, dated 2022)", "key": {"recombinant mouse APA": {"biological_target": "T1, recombinant mouse APA (Mus musculus, UniProt P16406)", "T1 sequence (P16406 1-945)": "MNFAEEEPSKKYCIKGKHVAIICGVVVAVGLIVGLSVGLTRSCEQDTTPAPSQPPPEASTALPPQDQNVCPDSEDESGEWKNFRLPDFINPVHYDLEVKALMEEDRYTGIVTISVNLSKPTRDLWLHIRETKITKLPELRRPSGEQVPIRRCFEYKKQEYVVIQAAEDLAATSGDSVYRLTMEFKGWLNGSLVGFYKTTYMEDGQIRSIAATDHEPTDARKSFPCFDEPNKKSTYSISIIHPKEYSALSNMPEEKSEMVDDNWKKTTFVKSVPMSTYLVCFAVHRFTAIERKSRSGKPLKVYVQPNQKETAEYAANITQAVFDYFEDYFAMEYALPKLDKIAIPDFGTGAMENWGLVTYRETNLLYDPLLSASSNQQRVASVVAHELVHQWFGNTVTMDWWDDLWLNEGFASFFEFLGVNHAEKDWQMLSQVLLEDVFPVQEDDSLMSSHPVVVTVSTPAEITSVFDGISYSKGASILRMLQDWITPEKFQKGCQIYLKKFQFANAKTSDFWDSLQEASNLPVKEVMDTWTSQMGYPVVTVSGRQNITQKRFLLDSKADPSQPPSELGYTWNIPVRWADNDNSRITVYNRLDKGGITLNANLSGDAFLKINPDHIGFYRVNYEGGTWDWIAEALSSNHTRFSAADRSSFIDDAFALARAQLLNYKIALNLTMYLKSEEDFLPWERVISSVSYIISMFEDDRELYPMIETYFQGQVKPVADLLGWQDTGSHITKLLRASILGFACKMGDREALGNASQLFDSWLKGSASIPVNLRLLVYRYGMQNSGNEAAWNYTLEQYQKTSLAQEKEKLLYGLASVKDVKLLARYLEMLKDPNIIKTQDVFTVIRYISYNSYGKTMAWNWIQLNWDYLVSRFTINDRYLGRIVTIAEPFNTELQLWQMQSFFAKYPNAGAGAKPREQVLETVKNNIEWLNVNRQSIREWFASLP", "test": "Measurement of APA activity in vitro (GluβNa hydrolysis, microplate)", "type": "biochemical", "details": "200 μM Glu-βNa, pH 7.4, 37° C., dithiothreitol, 4 mM CaCl2", "description": "Measurement of APA activity in vitro is based on the protocol of Goldbarg adjusted to the scale of assaying on microplates (Pro Bind™ 3915) (Chauvel et al., 1994). In vitro, in the presence of calcium ions, APA hydrolyses a synthetic substrate α-L-glutamyl-β-naphthylamide (GluβNa) to glutamate and β-naphthylamine ([…]). A diazotation reaction in acidic medium makes it possible to reveal the β-naphthylamine by formation of a violet-colored complex: spectrophotometric measurement then makes it possible to know the amount of complex formed and, by reference to a standard curve produced with increasing concentrations of β-naphthylamine, to deduce the enzymatic activity of the sample.\nThe Glu-βNa substrate (Bachem) and the β-naphthylamine (Sigma) are dissolved in 50% DMSO (dimethyl sulphoxide) and 0.1 N HCl respectively, and conserved at −20° C. at a concentration of 10^−2 M. The diazotation reaction is carried out in the presence of sodium nitrite (87 mM), ammonium sulfamate (130 mM) and N-(1-naphthyl)-ethylenediamine dihydrochloride (23 mM in 95% ethanol). […]\nThe absorbance is then measured at 540 nm. […]"}, "brain APA [1]": {"biological_target": "T2, brain APA (Mus musculus, UniProt P16406)", "T2 construct": "from tissue; host or cells: mouse brain homogenate", "T2 sequence (P16406 1-945)": "T1 sequence (P16406 1-945)", "test": "Measurement of brain APA activity ex vivo after i.v. administration in mice", "details": "50 mg/kg i.v., 180 min after administration", "description": "(§1) Brain APA activity was determined as described above\nIn vivo, in mice (male, 18-20 g Charles River), Example 1 was administered i.v. (50 mg/kg, in a volume of 200 μL).\n(§2) For each condition, four to sixteen mice and five to seven rats were used. Animals were sacrificed 180 min after the administration. The brains were immediately removed and homogenized by sonication in 10 vol of ice-cold 50 mM Tris-HCl buffer (pH 7.4). APA enzymatic activity was measured on brain homogenates. For this purpose, aliquots of the tissue homogenate (16 μL) were incubated for 30 min at 37° C. with 200 μM of Glu-βNa, 4 mM CaCl2, and 1 μM bestatin inhibitor, with or without 5 μM EC33, in a total volume of 100 μL of 50 mM Tris-HCl buffer (pH 7.4). Then the assay was pursued as described above."}, "post-MI mice": {"system": "post-MI mice", "test": "Left ventricular ejection fraction (LVEF) by echocardiography in mice post myocardial infarction", "type": "in vivo, CD1 mice", "details": "mice 4 weeks post MI, Mean±SEM", "description": "Adult male CD1 mice were anesthetized with a mixture of 100 mg/kg ketamine (Imalgene 1000, Merial, Lyon, France) and 10 mg/kg xylazine (Rompun 2%, Bayer Healthcare, Loos, France), via intraperitoneal injection, intubated and ventilated at a rate of 200 insufflations/min, with a mean insufflate volume of 0.2 mL (Bioseb, France). The skin was disinfected and incised between the 2nd and 3rd intercostal space and the heart was exposed by left thoracotomy. Pericardium was opened and the left anterior descending (LAD) coronary artery infarction was permanently ligatured between the pulmonary artery trunk and the left atrial appendage, with 8/0 […] suture. (PVDF monofilament, 8-0, Peters Surgical, Bobigny, France). Ischemia was confirmed by visible left ventricle (LV) bleaching under the ligature. The thorax was then closed by three discontinuous points (PVDF monofil, 6/0, Peters Surgical, Bobigny, France) then mice received a subcutaneously injection of Meloxicam 1 mg/kg (Metacam, Boehringer Ingelheim, Germany) for prolonged analgesia. The pneumothorax was drained. The muscles and skin were then sutured (prolene thread 6-0, Peters Surgical, France) and the animals were rehydrated with saline at 37° C. Animals were extubated as soon as they could breathe spontaneously. The animal was placed in a cage and monitored regularly over 48 hours. Mice received an injection of Meloxicam 1 mg/kg, 24 hours postsurgery and up to 72 hours. The same surgical procedure was performed without LAD coronary artery ligation in sham-operated mice.\nPost-MI mice received chronic oral treatment firibastat (RB150 used as a reference of brain APA inhibitor) at 150 mg/kg, ramipril (ACE inhibitor as standard treatment) at 1.25 mg/kg, or example 2 at 25 mg/kg with peanut butter vehicle. […] Cardiac function was evaluated regularly by trans-thoracic echocardiography at 4 weeks post MI to analyze the effects of different chronic oral treatment on heart contractility."}, "brain APA [2]": {"biological_target": "T3, brain APA (Rattus norvegicus, UniProt P50123)", "T3 construct": "from tissue; host or cells: DOCA-salt rat brain homogenate", "T3 sequence (P50123 whole entry)": "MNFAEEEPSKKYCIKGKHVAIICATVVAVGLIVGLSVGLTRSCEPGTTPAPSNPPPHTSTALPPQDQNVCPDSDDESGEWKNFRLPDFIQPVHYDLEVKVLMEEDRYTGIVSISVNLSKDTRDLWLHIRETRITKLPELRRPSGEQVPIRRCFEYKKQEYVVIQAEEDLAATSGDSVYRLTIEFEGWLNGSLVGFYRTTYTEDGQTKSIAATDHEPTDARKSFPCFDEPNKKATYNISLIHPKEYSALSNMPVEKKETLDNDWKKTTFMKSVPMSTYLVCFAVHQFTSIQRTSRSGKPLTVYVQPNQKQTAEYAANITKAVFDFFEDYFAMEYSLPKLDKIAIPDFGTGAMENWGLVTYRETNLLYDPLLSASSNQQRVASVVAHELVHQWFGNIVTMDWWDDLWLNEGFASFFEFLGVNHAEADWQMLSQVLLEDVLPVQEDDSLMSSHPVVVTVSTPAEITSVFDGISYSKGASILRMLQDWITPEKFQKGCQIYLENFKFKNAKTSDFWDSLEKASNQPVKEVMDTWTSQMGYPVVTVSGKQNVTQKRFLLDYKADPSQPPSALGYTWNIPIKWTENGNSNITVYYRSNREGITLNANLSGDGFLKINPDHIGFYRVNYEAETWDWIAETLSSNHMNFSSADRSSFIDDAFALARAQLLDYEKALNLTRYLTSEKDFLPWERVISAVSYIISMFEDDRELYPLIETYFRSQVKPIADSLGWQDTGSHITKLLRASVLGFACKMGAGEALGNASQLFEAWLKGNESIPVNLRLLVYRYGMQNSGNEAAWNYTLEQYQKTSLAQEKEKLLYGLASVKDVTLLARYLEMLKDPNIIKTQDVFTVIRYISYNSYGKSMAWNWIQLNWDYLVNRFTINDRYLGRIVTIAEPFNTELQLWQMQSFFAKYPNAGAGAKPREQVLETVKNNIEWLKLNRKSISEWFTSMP", "test": "Measurement of brain APA activity ex vivo after p.o. administration in DOCA-salt rats", "details": "8 mg/kg p.o., 180 min after administration", "description": "as §1\nIn vivo, in DOCA-salt rats (male, 250 g Charles River), Example 2 was administered p.o. (8 mg/kg, in a volume of 400 μL).\nas §2"}, "[3]": {"system": "hypertensive DOCA-salt rats", "test": "Measurement of mean arterial blood pressure (MABP) and heart rate (HR) in conscious hypertensive DOCA-salt rats", "type": "in vivo", "details": "8 mg/kg p.o.", "description": "Male DOCA-salt rats were anesthetized with 3% isoflurane (Iso-vet®, Piramal, UK) for induction and 1.5-2% isoflurane for maintenance. A catheter was inserted into the right femoral artery to monitor MABP and HR. The catheter was tunneled subcutaneously to exit from the neck. Animals were maintained for 2 days in the animal room, under frequent observation, before MABP and HR recording. Baseline MABP and HR were recorded for at least 60 min before Example 2 was administered p.o. (8 mg/kg, in a volume of 400 μL). MABP and HR were recorded continuously for 6 h after treatment."}}}
{"smiles": "N[C@@H](CCS(=O)(=O)O)CSSC[C@H](N)C(=O)O", "note": "[Example 1, (2R)-2-amino-3-{[(2S)-2-amino-4-sulfobutyl]disulfanyl}propanoic acid]", "values": [{"measurement": "In vitro inhibition of aminopeptidase A, Results", "setting": "recombinant mouse APA", "result": "0.81 ± 0.05", "unit": "µM"}, {"measurement": "brain APA activity", "setting": "brain APA [1]; brain homogenate", "result": "39.6±5.2 nmol of Glu-βNa hydrolyzed per mg of protein per h"}, {"measurement": "decrease of brain APA activity", "setting": "brain APA [1]; vs. control", "result": 45, "unit": "%"}]}
{"smiles": "N[C@@H](CCS(=O)(=O)O)CSSC[C@@H](N)CCS(=O)(=O)O", "note": "[firibastat]", "values": [{"measurement": "LVEF", "setting": "post-MI mice; chronic oral 150 mg/kg once daily for 4 weeks", "result": "50.9±1", "unit": "%"}]}
{"smiles": "CCOC(=O)[C@H](CCc1ccccc1)N[C@@H](C)C(=O)N1[C@H](C(=O)O)C[C@@H]2CCC[C@@H]21", "note": "[ramipril]", "values": [{"measurement": "LVEF", "setting": "post-MI mice; chronic oral 1.25 mg/kg once daily for 4 weeks", "result": "48.4±1.2", "unit": "%"}]}
{"smiles": "N[C@@H](CSS[C@@H](CCc1ccccc1)[C@@H](N)CCS(=O)(=O)O)C(=O)O", "note": "[Example 2, (2R)-2-amino-3-{[(3S,4S)-4-amino-1-phenyl-6-sulfohexan-3-yl]disulfanyl}propanoic acid]", "values": [{"measurement": "In vitro inhibition of aminopeptidase A, Results", "setting": "recombinant mouse APA", "result": "0.18 ± 0.02", "unit": "µM"}, {"measurement": "brain APA activity", "setting": "brain APA [2]; brain homogenate", "result": "46.1±2.4 nmol of Glu-βNa hydrolyzed per mg of protein per h"}, {"measurement": "decrease of brain APA activity", "setting": "brain APA [2]; vs. control", "result": 29, "unit": "%"}, {"measurement": "effect on HR", "setting": "[3]; 0 to 6 h after administration", "result": "no effect"}, {"measurement": "decrease in MABP", "setting": "[3]; 3 h after administration", "result": "−27±11", "unit": "mmHg"}, {"measurement": "decrease in MABP", "setting": "[3]; 6 h after treatment", "result": "−44±8", "unit": "mmHg"}, {"measurement": "LVEF", "setting": "post-MI mice; chronic oral 25 mg/kg once daily for 4 weeks", "result": "50.6±0.9", "unit": "%"}]}
